Literature values as cited in patent EP0077028B1, “Renin inhibitory peptides” (Merck & Co., Inc., priority 1981, dated 1987).

Test system: hog renin
Settings: after the injection of hog renin into nephrectomized rats

## pepstatin
  blood pressure in vivo: reduce blood pressure
